Earlier results on four molecules are cited in patent US20040053948A1, “Compounds, compositions and methods” (Cytokinetics, Inc., priority 2002, published 2004).

By GI50 is commonly meant the concentration at which growth is held to half of that of the control.

For this data set, the system named is A549 cells. The following applies: data provided by National Cancer Institute, Developmental Therapeutic Program.

For `COc1cccc2c1C(=O)c1c(O)c3c(c(O)c1C2=O)C[C@@](O)(C(=O)CO)C[C@@H]3O[C@H]1C[C@H](N)[C@H](O)[C@H](C)O1` [doxorubicin], the 50% growth inhibitory concentration (GI50) was 63 nM.

With `O=c1[nH]cc(F)c(=O)[nH]1` [5-fluorouracil], the GI50 was 1000 nM.

For the molecule `CC(=O)O[C@H]1C(=O)[C@@]2(C)[C@H]([C@H](OC(=O)c3ccccc3)[C@]3(O)C[C@H](OC(=O)[C@H](O)[C@@H](NC(=O)c4ccccc4)c4ccccc4)C(C)=C1C3(C)C)[C@]1(OC(C)=O)CO[C@@H]1C[C@@H]2O` [paclitaxel], the 50% growth inhibitory concentration (GI50) was 4 nM.

Take `NC(=O)NO` [hydroxyurea]: the GI50 is 500000 nM.
